Source: patent publication US20250051724A1, “MEDIUM COMPOSITION FOR CULTURING PORCINE PLURIPOTENT STEM CELLS” (SPACE F CORPORATION, priority 2022, published 2025)

Tests used:
Type in all cases: cell-based
[1] = system: porcine embryonic stem cells; conditions: for proportion of cells undergoing cell division / proliferation rate as the concentration increased (Ki-67): various concentrations in LDN-193189-containing medium
[2] = system: porcine embryonic stem cells
[3] = system: porcine embryonic stem cells grown on feeder cells; assay: pluripotency marker staining of cells grown on feeder cells
From the text: The effect of medium for feeder cell-free culture containing LDN-193189 on porcine embryonic stem cells grown on feeder cells was confirmed.

[4] = system: porcine embryonic stem cells; assay: immunological staining of NANOG and SSEA4 in culture medium containing FBS; conditions: culture medium in which KSR was replaced with FBS
From the text: In addition, it was confirmed whether the substance helps maintain the pluripotency of porcine embryonic stem cells in a culture medium containing fetal bovine serum (FBS), rather than a serum replacement.
As a result of confirming the pluripotency markers NANOG and SSEA4 through immunological staining, the culture medium containing FBS induced differentiation of porcine embryonic stem cells, and many cell colonies with reduced expression of NANOG and SSEA4 were discovered.

[5] = system: porcine embryonic stem cells; assay: qPCR analysis in culture medium containing FBS; conditions: environment containing FBS
[6] = system: porcine embryonic stem cells; remark: listed apart in the source
Protocol: To analyze the effect of LDN-193189, which is an ALK2/3 inhibitor, on feeder cell-free culture of porcine embryonic stem cells, LDN-193189 cytotoxicity was confirmed through annexin V staining (FIG. 1). […] In addition, treatment at a concentration of 1000 nM or more for 24 hours or more induced apoptosis of most cells.
To confirm the optimal concentration of “FF-embryonic stem cell culture medium” containing LDN-193189 from 100 nM to 1000 nM, the concentration was subdivided and annexin V staining was performed (FIG. 3A). […] In fact, LDN-193189 is known to inhibit the activin A signaling system involved in stem cell proliferation at high concentrations.

[7] = system: porcine embryonic stem cells; assay: qPCR gene expression analysis in feeder cell-free culture; conditions: LDN-193189 250 nM, cultured without feeder cells
Protocol: To analyze the expression level of pluripotency-related genes, differentiation-related genes, and the like depending on the culture period, porcine embryonic stem cells were cultured using “FF-embryonic stem cell culture medium” containing 100 nM LDN-193189 (ff-ESCs^LDN+) and “FF-embryonic stem cell culture medium” not containing LDN-193189 (ff-ESCs^LDN−), without feeder cells, and porcine embryonic stem cells were cultured as a control using the aforementioned embryonic stem cell culture medium along with feeder cells (control ESCs).
The cells were obtained on days 2, 4 and 6 after plating using each medium. Total RNA was extracted using TRIzol reagent (Invitrogen, Carlsbad, USA) and cDNA was synthesized using High-Capacity RNA-to-cDNA Kit (Applied Biosystems, Foster City, USA). cDNA was amplified using the DyNAmo HS SYBR Green qPCR kit (Thermo Fisher Scientific, Waltham, USA) with the primer sets listed in Table 1.
In addition, as shown in C and D of FIG. 2, the effect of treatment with LDN-193189 (250 nM), which is an inhibitor of the SMAD1/5 signaling system, on feeder cell-free culture of porcine embryonic stem cells was confirmed.

[8] = system: porcine embryonic stem cells grown on feeder cells; assay: qPCR analysis of cells grown on feeder cells
From the text: Treatment with LDN-193189 reduced the spontaneous differentiation of porcine embryonic stem cells grown on feeder cells and enhanced the expression of the SSEA4 marker. This is presumed to be because it suppresses the SMAD1/5 signaling system involved in mesodermal differentiation and activates the SMAD2/3 signaling involved in the proliferation of stem cells. In addition, qPCR analysis confirmed that treatment with LDN-193189 reduced the expression of genes involved in the development of various mesodermal tissues.

Cc1c[nH]c(-c2cnc(NCCNc3ccc(C#N)cn3)nc2-c2ccc(Cl)cc2Cl)n1 [CHIR99021]
proportion of cells undergoing cell division / proliferation rate as the concentration increased (Ki-67) [1]: gradually decreased

O=C(Nc1cccc2cccnc12)c1ccc(N2C(=O)[C@@H]3[C@H](C2=O)[C@@H]2C=C[C@H]3C2)cc1 [IWR-1]
cytotoxicity [2]: showed cytotoxicity at high concentrations
concentration showing the highest cellular activity ([2]; various concentrations): 0.5 µM
proportion of cells undergoing cell division / proliferation rate as the concentration increased (Ki-67) [1]: gradually increased

c1ccc2c(-c3cnn4cc(-c5ccc(N6CCNCC6)cc5)cnc34)ccnc2c1 [LDN-193189]
final treatment concentration (maximum concentration that inhibits only the BMP signaling system and does not cause cytotoxicity) [2]: 100 nM
expression of the SSEA4 marker [3]: enhanced
spontaneous differentiation [3]: reduced
FBS-induced differentiation (colonies with reduced expression of NANOG and SSEA4) [4]: alleviated
expression of mesoderm-related genes (qPCR) [5]: reduced
concentration with high cytotoxicity (annexin V staining) [6]: ≥ 1000 nM
expression of genes involved in pluripotency and mesodermal tissue development [7]: restored to the level when cultured on the feeder cells
Ki-67 staining result ([1]; from 100 nM to 1000 nM): no significant difference
expression of genes involved in the development of mesodermal tissues (qPCR) [8]: reduced

FGF2: fibroblast growth factor 2 (hrFGF2, R&D Systems)
concentration at which cell activity decreased due to cytotoxicity (WST-8) [2]: ≥ 100 ng/mL
proportion of cells undergoing cell division / proliferation rate as the concentration increased (Ki-67) [1]: gradually increased

activin A: ActA (activin; activin A) (R&D Systems), cytokine in culture medium
concentration at which cell activity decreased due to cytotoxicity (WST-8) [2]: ≥ 10 ng/mL
concentration with decreased proliferation rate (Ki-67) [1]: ≥ 0.01 µg/mL
